System: cat fleas
Experiment: Cat flea emergence inhibition from eggs on treated flea-rearing medium
Format: in vivo
Details: 20 flea eggs, after approximately three weeks, corrected against acetone control
Experimental: Six gram quantities of medium for rearing fleas (mixed to make sand/powdered feed/dry yeast/dry bovine blood=80/16/3/1 wt %) were placed in vials. Acetone solutions were prepared so that the hydrazide compounds and pyriproxyfen would have the concentrations (wt % versus the medium) shown in Table 2 in the treated medium for rearing fleas. The medium was treated by 1.0 mL of the acetone solution, stirred until homogeneous, and dried. Filter paper (TOYO No. 2; 3.8 cm in diameter) was placed on aluminum dishes 3.8 cm in diameter, and 20 flea eggs were placed on the filter paper using a suitably moistened brush. A quantity of 1.0 g of the dried, treated medium was placed evenly on top of the filter paper on which the eggs rested, and the aluminum dishes were placed in resin petri dishes and stored at a temperature of 26° C. and humidity of 85-95%. Medium that had been treated only by acetone was also processed by the same method as a control group. After approximately three weeks, the emergence of the cat fleas was examined, and the emergence inhibition rate was calculated by the following formula.
Corrected emergency inhibition rate=(C−T)÷C×100
C: Emergence rate of untreated control group
T: Emergence rate of treated group

[1] = hydrazide compound 0.4 × 10^−4 % in combination with pyriproxyfen 10^−8 % (wt % versus the medium)
[2] = hydrazide compound alone, 0.4 × 10^−4 % (wt % versus the medium)

SMILES	Emergence inhibition rate (%) [1] [%]	Emergence inhibition rate (%) [2] [%]	Emergence inhibition rate (%) (pyriproxyfen alone, 10^−8 % (wt % versus the medium))
O=C(CCC(F)(F)F)NNc1cc(C2=NOC(c3cc(Cl)cc(Cl)c3)(C(F)(F)F)C2)ccc1Cl (centres unmarked) [Hydrazide compound (17), N′-{5-[5-(3,5-dichlorophenyl)-5-trifluoromethyl-4,5-dihydroisoxazol-3-yl]-2-chlorophenyl}-4,4,4-trifluorobutyrohydrazide]	63	6.3	
CN(NC(=O)CCC(F)(F)F)c1cc(C2=NOC(c3cc(Cl)cc(Cl)c3)(C(F)(F)F)C2)ccc1Cl (centres unmarked) [Hydrazide compound (31), N′-methyl-N′-{2-chloro-5-[5-(3,5-dichlorophenyl)-5-trifluoromethyl-4,5-dihydroisoxazol-3-yl]phenyl}-4,4,4-trifluorobutyrohydrazide]	86	34	
CC(COc1ccc(Oc2ccccc2)cc1)Oc1ccccn1 (centres unmarked) [Pyriproxyfen, 4-phenoxyphenyl=2-(pyridyloxy)propyl=ether, reference compound]			4.0

Source: US20120035218A1, “PEST CONTROL COMPOSITION” (SUMITOMO CHEMICAL COMPANY, LIMITED, priority 2010, published 2012)
